Square brackets hold non-standard residues; d marks the D form. Peptide text beside a SMILES is read from it. Nle = CCCC[C@H](N)C(=O)O; Nva = CCC[C@H](N)C(=O)O
test system: secretion of ACTH stimulated by oCRF in cultured rat pituitary cells; assay: Blocking of oCRF-stimulated ACTH and β-endorphin secretion by cultured rat pituitary cells; format: cell-based; details: result in words
Description: The effectiveness of synthetic CRF antagonists to block the secretion of ACTH and β-endorphin by cultured rat pituitary cells is measured using the procedure as generally set forth in Vale et al., Endocrinology, 91, 562 (1972).

Question: For CCCC[C@H](NC(=O)[C@H](Cc1ccc(O)cc1)NC(=O)[C@H](CCCCN)NC(=O)[C@H](CCCNC(=N)N)NC(=O)[C@H](CC(N)=O)NC(=O)[C@H](CC(C)C)NC(=O)CNC(=O)[C@H](C)NC(=O)[C@H](CCC(N)=O)NC(=O)[C@H](CCC(=O)O)NC(=O)[C@H](CCCNC(=N)N)NC(=O)[C@H](CCC(N)=O)NC(=O)[C@H](CC(N)=O)NC(=O)[C@H](CCC(=O)O)NC(=O)[C@H](CC(N)=O)NC(=O)[C@H](CCCNC(=N)N)NC(=O)[C@H](C)NC(=O)[C@H](CCSC)NC(=O)[C@H](CCC(=O)O)NC(=O)[C@@H](NC(=O)[C@H](CCSC)NC(=O)[C@H](CC(N)=O)NC(=O)[C@H](CCCNC(=N)N)NC(=O)[C@H](CC(C)C)NC(=O)[C@H](CC(C)C)NC(=O)[C@H](Cc1c[nH]cn1)NC(=O)[C@@H](N)Cc1ccccc1)[C@@H](C)CC)C(=O)N[C@@H](CC(=O)O)C(=O)N[C@@H](CCC(=O)O)C(=O)N[C@H](C(N)=O)C(C)C [VI, [Nle^38]-Carp Urotensin I(12-41)] (H-FHLLRNMIEMARNENQREQAGLNRKY[Nle]DEV-NH2), which “inhibition of the secretion of ACTH and β-END-LI” value (“inhibition” for short) is on record?
Answer: The value was “inhibits the secretion of ACTH and β-END-LI”.

Question: Which “inhibition” value does the source give for CCCC[C@H](NC(=O)[C@H](CCC(=O)O)NC(=O)[C@@H](NC(=O)[C@H](CCCC)NC(=O)[C@H](CC(N)=O)NC(=O)[C@H](CCCNC(=N)N)NC(=O)[C@H](CC(C)C)NC(=O)[C@H](CC(C)C)NC(=O)[C@H](Cc1c[nH]cn1)NC(=O)[C@@H](N)Cc1ccccc1)[C@@H](C)CC)C(=O)N[C@@H](C)C(=O)N[C@@H](CCCNC(=N)N)C(=O)N[C@@H](CC(N)=O)C(=O)N[C@@H](CCC(=O)O)C(=O)N[C@@H](CC(N)=O)C(=O)N[C@@H](CCC(N)=O)C(=O)N[C@@H](CCCNC(=N)N)C(=O)N[C@@H](CCC(=O)O)C(=O)N[C@@H](CCC(N)=O)C(=O)N[C@@H](C)C(=O)NCC(=O)N[C@@H](CC(C)C)C(=O)N[C@@H](CC(N)=O)C(=O)N[C@@H](CCCNC(=N)N)C(=O)N[C@@H](CCCCN)C(=O)N[C@@H](Cc1ccc(O)cc1)C(=O)N[C@@H](CCCC)C(=O)N[C@@H](CC(=O)O)C(=O)N[C@@H](CCC(=O)O)C(=O)N[C@H](C(N)=O)C(C)C [VIII, [Nle^18,21,38]-Carp Urotensin I(12-41)] (H-FHLLRN[Nle]IE[Nle]ARNENQREQAGLNRKY[Nle]DEV-NH2) here?
Answer: The value was “inhibits the secretion of ACTH and β-END-LI”.

Question: With CCCC[C@H](NC(=O)[C@H](CC(C)C)NC(=O)[C@H](CCCCN)NC(=O)[C@H](CCCNC(=N)N)NC(=O)[C@H](CC(N)=O)NC(=O)[C@H](CO)NC(=O)[C@H](Cc1c[nH]cn1)NC(=O)[C@H](C)NC(=O)[C@H](CCC(N)=O)NC(=O)[C@H](CCC(N)=O)NC(=O)[C@H](C)NC(=O)[C@H](CC(C)C)NC(=O)[C@H](CCC(N)=O)NC(=O)[C@H](CCC(=O)O)NC(=O)[C@H](C)NC(=O)[C@H](CCCNC(=N)N)NC(=O)[C@H](C)NC(=O)[C@H](CCSC)NC(=O)[C@H](CCC(=O)O)NC(=O)CNC(=O)[C@@H](NC(=O)[C@H](CCC(=O)O)NC(=O)[C@H](CCCNC(=N)N)NC(=O)[C@H](CC(C)C)NC(=O)[C@H](CC(C)C)NC(=O)[C@H](Cc1c[nH]cn1)NC(=O)[C@H](Cc1ccccc1)NC(=O)[C@@H](NC(=O)[C@H](CC(C)C)NC(=O)[C@H](CC(=O)O)NC(C)=O)[C@@H](C)O)C(C)C)C(=O)N[C@@H](CC(=O)O)C(=O)N[C@@H](CCC)C(=O)N[C@H](C(N)=O)[C@@H](C)CC [XIII, [Acetyl-Asp^9, Gly^19, Nle^38, Asp^39, Nva^40]-hCRF(9-41)] (Ac-DLTFHLLREVGEMARAEQLAQQAHSNRKL[Nle]D[Nva]I-NH2) as the molecule, how does the “inhibition” value read?
Answer: Its value is “inhibits the secretion of ACTH and β-END-LI”.

From patent US5109111A, “CRF antagonists” (The Salk Institute for Biological Studies, priority 1990, dated 1992)
